Here are results for 2 compounds from patent US9198892B2, “Composition and/or method for preventing onset and/or recurrence of cardiovascular events” (MOCHIDA PHARMACEUTICAL CO., LTD., priority 2005, dated 2015).

The conditions of assay [1]: oral, cited from earlier work.
For assay [2] the following is noted: two-year administration after PTCA; cited from earlier work.
Assay [3] can be described thus: Five-year large scale randomized unblinded controlled trial of EPA-E: onset of cardiovascular events. In kind it is in vivo, human. The settings on record: five years; for incidence rate of the cardiovascular events / Cases with the cardiovascular events/all cases: EPA-E group. On the procedure: (§1) The observation was conducted by a large scale randomized unblinded controlled trial of the EPA-E group (9,326 cases) and the control group (9,319 cases). The patients were randomized into the groups at the beginning of the trial so that no significant difference is found between the groups in the background factors of the patients, namely, age, sex ratio, history and complication, type and proportion of the HMG-CoA RI, serum lipid concentration, and the like. The patients of both groups were under nutritional counseling, and HMG-CoA RI was administered to them as a base drug.
The data was collected from […] participant patients by about 4,900 participant physicians in about 2,900 participant facilities with sufficient case number, randomization, and the strictness required for the controlled trial. For example, in choosing the participant patients, the serum T-Cho concentration was measured twice at an interval of two to four weeks except for the cases where the patients underwent an adequate nutritional consulting with high compliance and the cases where the fasting blood was collected after cessation of the antilipidemic drug, in which the measurement was conducted only once. While untreated patients were preferable, in the case of patients who had been taking an antilipidemic drug for more than six months at the start of the trial, four weeks of drug holidays (eight weeks in the case of probucol) were given. Patients who were administered with the antilipidemic drug for six months or less at the start of the trial were admitted in the trial with no drug holiday, and when the drug was HMG-CoA RI, its administration was continued while other drugs were changed to HMG-CoA RI.
In order to exclude cardiovascular events in the unstable period after the onset of myocardial infarction and cardiovascular events such as restenosis in the unstable period which is conceived to be caused by the angioplasty itself, the patients at or within six months after the acute myocardial infarction and patients at or within six months after the cardiovascular angioplasty were excluded from the trial subjects, and only patients who are beyond six months after such events and who are conceived to be in the stable period were included in the trial. In addition, patients who are inadequate for the examination of the action of preventing the onset of cardiovascular events for a long time which is the object of this trial, for example, patients of unstable angina pectoris, patients with history or complication of serious heart diseases (such as severe arrhythmia, heart failure, cardiomyopathy, valvular disease, and congenital heart disease), patients at or within six months from the onset of cerebrovascular disorder, and patients with complication of serious liver disease or kidney disease, as well as the patients whose participation was judged to be inappropriate by the attending physician were excluded from the trial.
(§2) Epadel (Mochida Pharmaceutical Co., Ltd.) was orally administered as EPA-E typically at an adult dose of 600 mg after the meal three times a day. In the case of abnormal serum TG, however, the dose could be increased to 900 mg per administration and three times a day.
(§3) Pravastatin sodium (Mevalotin tablets and fine granules, Sankyo Co., Ltd.), simvastatin (Lipovas tablets, Banyu Pharmaceutical Co., Ltd.), or atorvastatin calcium hydrate (Lipitor tablets, Astellas Pharma Inc. and Pfizer) was used for the HMG-CoA RI, and these drugs were orally administered according to the predetermined dosage regimen.
For five years from before the start of the trial to the end of the trial, the concentration of the serum lipid (T-Cho, HDL-Cho, and TG) was periodically measured, and LDL-Cho was calculated by the equation of T-Cho-HDL-Cho-(TG/5). […]

A short description of assay [4]: Serum lipid concentration in the five-year EPA-E trial. In kind it is in vivo, human. On the procedure: as §1, §2, §3
For five years from before the start of the trial to the end of the trial, the concentration of the serum lipid (T-Cho, HDL-Cho, and TG) was periodically measured, and LDL-Cho was calculated by the equation of T-Cho-HDL-Cho-(TG/5). In addition, onset of cardiovascular events (cardiovascular death (fatal myocardial infarction and sudden cardiac death), nonfatal myocardial infarction, cardiovascular angioplasty, new onset of rest angina or effort angina, and destabilization of angina pectoris (hospitalization and cardiovascular angioplasty)) was observed.

The conditions of assay [5]: oral 600 mg three times a day immediately after meals (up to 900 mg when serum TG is abnormal); cited from earlier work.
Setting [6] is: Cardiovascular angioplasty history: No.
Setting [7] is: Cardiovascular angioplasty history: Yes.
Setting [8] is: Myocardial Infarction history: No.
Where [9] appears, read: Myocardial Infarction history: Yes.
[10] abbreviates: EPA-E group with HMG-CoA RI, five years.

For `CC[C@H](C)C(=O)O[C@H]1C[C@H](O)C=C2C=C[C@H](C)[C@H](CC[C@@H](O)C[C@@H](O)CC(=O)O)[C@H]21` [pravastatin sodium], in assay [1] (average 4.9 years), the “serum HDL-Cho concentration increased” value is listed as 5%; the “serum LDL-Cho concentration decreased” value is on record as 26%; the “serum TG decreased” value is recorded as 12%; the “total incidence rate of nonfatal myocardial infarction and cardiovascular death decreased” value was 31%. Besides, in assay [1] (average period of 4.9 years, male hyperlipidemia patients with no history of myocardial infarction), the “serum T-Cho concentration decreased” value was 20%. For the same compound, the restenosis rate entry in assay [2] is recorded as “reduced the restenosis rate”.
For the compound `CC/C=C\C/C=C\C/C=C\C/C=C\C/C=C\CCCC(=O)OCC` [EPA-E, ethyl icosapentate], the “Odds ratio (incidence rate of the EPA-E group)/(incidence rate of the control group)” value in assay [3] (All Cases) is given as 0.808. Moreover, the “Odds ratio (EPA-E group/control group)” value in assay [3] (setting [6]) amounted to 0.862; in assay [3] (setting [7]), 0.671; in assay [3] (setting [8]) it was 0.811; in assay [3] (setting [9]), 0.744. Further, the “incidence rate of the cardiovascular events” value in assay [3] (setting [6]) is “(2.10) %”; in assay [3] (setting [7]), “(14.45) %”; in assay [3] (setting [8]), “(2.05) %”; in assay [3] (setting [9]), “(14.96) %”. Moreover, the “Cases with the cardiovascular events/all cases” value in assay [3] (setting [7]) is 77/533; in assay [3] (setting [9]) it was 82/548. The “reduction of the incidence rate of the cardiovascular events compared to the control group” value in assay [3] (all cases) is recorded as “about 19%”. Further, the “decrease of the incidence rate of the cardiovascular events compared to the control group” value in assay [3] (patients with history of cardiovascular angioplasty) was “about 33%”; in assay [3] (patients with history of myocardial infarction), “about 26%”. Moreover, in assay [4] (setting [10]), the “serum HDL-Cho concentration” value is on record as “no significant change”. For the same compound, the “serum TG concentration” value in assay [4] (setting [10]) is reported as “decreased”. Besides, the “serum LDL-Cho concentration” value in assay [4] (EPA-E group with HMG-CoA RI, five years, LDL-Cho calculated) was “decreased”. For the same compound, in assay [4] (EPA-E group with HMG-CoA RI, observation period of five years), the “serum T-Cho concentration” value is “decreased”. For the same compound, the “decrease in the serum TG concentration, EPA-E group versus control group” value in assay [4] (five years) is reported as “more significant”. The “serum T-Cho concentration reduced” value in assay [5] is recorded as 3-6%.
